# Test results published in patent publication US20260275307A1, “PRIME EDITING SYSTEM BASED ON PERV REVERSE TRANSCRIPTASE” (Jiangxi Agricultural University, priority 2023, published 2026).
# Legend:
# [1] = test system: fluorescent reporter PFF cell line; experiment: Small molecules: effect on PE editing efficiency in fluorescent reporter PFF cell line; type: cell-based, pig; conditions: 20 μM RS-1, 200 ng/mL Nocodazole, FIG. 18A; for PE efficiency: single molecule added to medium after transfection: 40 μM L755507, 0.1 μM Brefeldin A, 10 nM TSA; for increase of editing efficiency: single molecule: 10 nM TSA
# Experimental: From this, it can be expected that some small molecules may also improve the editing efficiency of PE. […] Cells were treated by adding the corresponding concentrations of small molecules or combinations of small molecules, respectively, to the medium after transfection.
# primary PFFs = experiment: Small molecules: effect on PE editing efficiency in primary PFFs; type: cell-based, pig; conditions: primary PFF; FIG. 18C
# Experimental: Cells were treated by adding the corresponding concentrations of small molecules or combinations of small molecules, respectively, to the medium after transfection.
# The effect of Rs-1, Nocodazole, TSA, and the combination of Rs-1+TSA and Rs-1+Nocodazole in primary PFFs was then verified.
# [2] = test system: 293T cells co-transfected with fluorescent reporter gene vector; experiment: 293T cell fluorescence reporter gene co-transfection experiment; type: cell-based; conditions: Bmx-PERV-RT with 6 mutation sites and combinations; 3 editing forms; FIG. 12
# Experimental: 1×10^5 cells were inoculated into a 24-well culture dish 17-24 hours before cell transfection, and when the cell confluence reached 50-80%, transfection was performed using H4000 reagent (Ingran, China), and each transfection reaction included 200 ng PE editor, 100 ng pegRNA, 100 ng ngRNA, 10 ng fluorescent reporter gene vector and 0.5 μL H4000 reagent. The cells were collected 48 hours after transfection, and detected by flow cytometry (BD, USA), with wild-type fluorescence reporter cells as background, and GFP positive cells were circled with FITC+PE double channel, with GFP ratio as editing efficiency.
# [3] = test system: dog fetal fibroblasts (DFF); experiment: Editing efficiency of PE editors in dog fetal fibroblasts; type: cell-based; conditions: pPE editors with 4 point mutations; canine fetal fibroblasts; FIG. 9
# Experimental: (§1) Canine fetal fibroblasts (DFF) were isolated from a female canine fetus on 30 days of gestation, and the specific establishment method was the same as that of PFF; goat fetal fibroblasts (SFF) were given by Yunnan Agriculture University Weijiang Laboratory, and the cells were isolated from a small tailed han sheep fetus; 293T cells were purchased from the Cell Bank of the Type Culture Collection Committee of Chinese Academy. All three cells were cultured in high-glucose DMEM (Gibco, USA) culture medium containing 12% (v/v) fetal bovine serum (Excell, China) and 1% (v/v) penicillin-streptomycin (BI, China) at 37° C. in a 5% CO2 incubator.
# (§2) DFF and SFF: The method is similar to the transfection method of PFF, and the difference lies in that when DFF and SFF were transformed, the cells were shocked by using the EN-150 program, then again by using the CA-113 program.
# (§3) SFF and DFF cells: 3 μg/mL puromycin (Sigma, Japan) was added 48 hours after electrotransformation for screening for 2 days, and then the culture medium was changed for further culture for 2 days.
# (§4) The method is same with the detection of editing efficiency of PFF.
# HEK293T cells = experiment: Editing efficiency of PE editors in 293T cells (puromycin screening, sequencing); type: cell-based; conditions: pPE editors with 4 point mutations, FIG. 9
# Experimental: as §1
# 293T cells: cells were inoculated into a 24-well culture dish 1-2 days before cell transfection, and when the cell confluency reached 50-60%, the cells were transfected with Lipofectamine 3000 reagent (Invitrogen, USA), and each transfection reaction included 1 μg PE editor, 0.5 μg pegRNA, 0.5 μg ngRNA and 1 μL Lipofectamine 3000 reagent.
# 293T cells: after transfection, 3 μg/mL puromycin (Sigma, Japan) was added for screening for 3 days, and then the culture medium was changed and cultured for another 2 days.
# as §4
# primary PFF cells = experiment: Editing efficiency of PE editors in primary PFF cells (high throughput sequencing of target sites); type: cell-based, pig
# Experimental: The sows for 31 days gestation were sacrificed and dissected, the whole uterus was taken out, the fetus and the fetal membrane were taken out one by one, and transferred into a DMEM solution containing 5% (v/v) penicillin and streptomycin (v/v; Gibco: 15140-122) for storage in a refrigerator at 4° C. In a clean bench, the isolated fetus was transferred one by one to a sterile 10 cm culture dish, and the head, viscera, limbs and tail of the fetus were removed with sterile forceps and scissors; the remaining part of the fetus was cleaned with a PBS solution containing 5% (v/v) penicillin and streptomycin (Gibco: 15140-122)), and then the remaining part of the fetus was cut to about 1 mm^3 within 10-15 minutes, and 5 ml of collagenase working solution was added to the cut tissue; the tip of 1 ml of sterile pipettor was cut off with scissors, and the cut tissue pieces were transferred to a 15 ml sterile centrifuge tube, sealed and placed in a shaker at 37° C. for incubation for 2 hours. After that, the centrifuge tube was centrifuged at 1000 rpm for 5 minutes, the upper collagenase working solution was removed, and the incubated tissues were evenly transferred into two T75 culture dishes and cultured in a 37° C., 5% CO2 sterile incubator. […]
# [4] = test system: sheep fetal fibroblasts (SFF); experiment: Editing efficiency of PE editors in sheep fetal fibroblasts; type: cell-based; conditions: pPE editors with 4 point mutations; FIG. 9
# Experimental: as §1, §2, §3, §4
# [5] = test system: immortalized BFP fluorescence reporter PFF cell line; experiment: Editing efficiency of PE editors in immortalized BFP fluorescence reporter PFF cell line (flow cytometry, GFP ratio); type: cell-based, Bama pig; conditions: epPE editors vs PE2c-Puro and each other, FIG. 3
# Experimental: The immortalized BFP fluorescence reporter PFF cell line was cultured in high glucose DMEM (Gibco, USA) medium containing 12% fetal bovine serum ((v/v), Excell, China) and 1% penicillin ((v/v), BI, China). The cell line was constructed by the laboratory, firstly, the SV40 large T antigen was site-directed knocked into the H11 safe harbor site of the primary PFFs of Bama pig, and then the BFP vector was site-directed integrated into the Rosa26 safe harbor site of immortalized PFF by the CRISPR Cas9 technology, and finally the BFP fluorescence reporter PFF cell line was obtained by serial passage. […]
# After the cells were digested with 0.125% trypsin (Gibco, USA), the cells were collected into a 1.5 mL EP tube, centrifuged at 200×g for 5 minutes, the supernatant was discarded, 50 μL of 1×PBS buffer was added to resuspend the cells, and the cells were detected by using a flow cytometer (BD, USA), the wild-type fluorescence reporter cells were used as the background, and GFP-positive cells were circled by using two channels of FITC+PE, and the GFP ratio was the editing efficiency.
Compound,PE efficiency [1],improvement of overall editing efficiency for the 6 sites (primary PFFs) [%],increase of editing efficiency [1] [%],other results
"C[C@H]1CCC/C=C/[C@@H]2C[C@H](O)C[C@H]2[C@H](O)/C=C/C(=O)O1 [BrefeldinA, Brefeldin A]",significantly (P<0.05 or P<0.01) improved PE efficiency,–,–,–
CCCCCCNC(=O)Nc1ccc(S(=O)(=O)Nc2ccc(CCNC[C@H](O)COc3ccc(O)cc3)cc2)cc1 [L755507],significantly (P<0.05 or P<0.01) improved PE efficiency,–,–,–
COC(=O)Nc1nc2ccc(C(=O)c3cccs3)cc2[nH]1 [Nocodazole],significantly (P<0.05 or P<0.01) improved PE efficiency,36.4,66.9,–
O=C(Nc1ccc(Br)cc1)c1ccc(Br)c(S(=O)(=O)NCc2ccccc2)c1 [Rs-1],significantly (P<0.05 or P<0.01) improved PE efficiency,20.8,32.7,–
"CC(/C=C/C(=O)NO)=C\[C@@H](C)C(=O)c1ccc(N(C)C)cc1 [TSA, Trichostatin A]",significantly (P<0.05 or P<0.01) improved PE efficiency,14.3,34.4,–
"M5.1: pPE editor, PERV-RT variant carrying 5 amino acid mutations (D199N, T305K, W312F, L602W, V222A); SEQ ID NO: 45",–,–,–,efficiency (GFP ratio) [2]: overall optimal efficiency in 3 editing forms
"bmx-pPE-C-M4-puro: pPE editor, Bama pig type C PERV-RT with D199N, T305K, W312F, L602W; SEQ ID NO: 31",–,–,–,"editing efficiency [3]: higher efficiency at most sites; editing efficiency (HEK293T cells): higher efficiency at most sites; editing efficiency (primary PFF cells; pPE editors with 4 point mutations in PFF, FIG. 8): overall higher efficiency; editing efficiency [4]: higher efficiency at most sites"
"epPE-AC-M3Δ-Puro: PE editor: nCas9 fused to PERV-AC-NC and PERV-AC-RT (ΔRNase H) with D199N, T305K, W312F; SEQ ID NO: 22",–,–,–,"editing efficiency (GFP ratio) [5]: higher than that of epPE-B-M3Δ-Puro; average editing efficiency (primary PFF cells; 6 editing sites tested in the primary PFF, FIG. 4): higher than that of epPE-B-M3Δ-Puro"
epPE-AC-M4Δ*-Puro: epPE-AC-M3Δ-Puro with RT amino acids 329-332 mutated from EKGE to PGTL; SEQ ID NO: 23,–,–,–,editing efficiency (GFP ratio) [5]: higher than that of epPE-B-M4Δ*-Puro
